In paper PMC5933747 (PLoS ONE, 2018):

Columns and labels:
Type in all cases: cell-based
[1] = target: human NaV1.7 (Homo sapiens, UniProt Q15858); assay: PatchXpress (PX) automated electrophysiology, human NaV1.7 in HEK293 cells; settings: PX platform, voltage protocol with 20% of channels inactivated, at least ten cells, two to three data points per concentration
[2] = target: human NaV1.5 (Homo sapiens, UniProt Q14524); assay: PatchXpress (PX) automated electrophysiology, human NaV1.5; settings: human; PX platform; at least ten cells, two to three data points per concentration
[3] = target: human NaV1.4 (Homo sapiens, UniProt P35499); assay: PatchXpress (PX) automated electrophysiology, human NaV1.4
Protocol: Human NaV (hNaV) stably transfected cell lines in HEK293 or CHO backgrounds and cell culture methods were as previously described. hNaV1.1-hNaV1.7 cells were obtained from Eurofins Pharma Discovery Services (St. Charles, MO), and hNaV1.8 cells were generated in house. Whole cell patch clamp, PatchXpress, and IWQ electrophysiology voltage protocols as well as DRG neuron isolation were carried out as previously described. NaV1.7-NaV1.5 chimeras were generated and evaluated in BacMam transduced U2-OS cells on the IWQ platform as previously described.

human NaV1.4, sequence (P35499 whole entry): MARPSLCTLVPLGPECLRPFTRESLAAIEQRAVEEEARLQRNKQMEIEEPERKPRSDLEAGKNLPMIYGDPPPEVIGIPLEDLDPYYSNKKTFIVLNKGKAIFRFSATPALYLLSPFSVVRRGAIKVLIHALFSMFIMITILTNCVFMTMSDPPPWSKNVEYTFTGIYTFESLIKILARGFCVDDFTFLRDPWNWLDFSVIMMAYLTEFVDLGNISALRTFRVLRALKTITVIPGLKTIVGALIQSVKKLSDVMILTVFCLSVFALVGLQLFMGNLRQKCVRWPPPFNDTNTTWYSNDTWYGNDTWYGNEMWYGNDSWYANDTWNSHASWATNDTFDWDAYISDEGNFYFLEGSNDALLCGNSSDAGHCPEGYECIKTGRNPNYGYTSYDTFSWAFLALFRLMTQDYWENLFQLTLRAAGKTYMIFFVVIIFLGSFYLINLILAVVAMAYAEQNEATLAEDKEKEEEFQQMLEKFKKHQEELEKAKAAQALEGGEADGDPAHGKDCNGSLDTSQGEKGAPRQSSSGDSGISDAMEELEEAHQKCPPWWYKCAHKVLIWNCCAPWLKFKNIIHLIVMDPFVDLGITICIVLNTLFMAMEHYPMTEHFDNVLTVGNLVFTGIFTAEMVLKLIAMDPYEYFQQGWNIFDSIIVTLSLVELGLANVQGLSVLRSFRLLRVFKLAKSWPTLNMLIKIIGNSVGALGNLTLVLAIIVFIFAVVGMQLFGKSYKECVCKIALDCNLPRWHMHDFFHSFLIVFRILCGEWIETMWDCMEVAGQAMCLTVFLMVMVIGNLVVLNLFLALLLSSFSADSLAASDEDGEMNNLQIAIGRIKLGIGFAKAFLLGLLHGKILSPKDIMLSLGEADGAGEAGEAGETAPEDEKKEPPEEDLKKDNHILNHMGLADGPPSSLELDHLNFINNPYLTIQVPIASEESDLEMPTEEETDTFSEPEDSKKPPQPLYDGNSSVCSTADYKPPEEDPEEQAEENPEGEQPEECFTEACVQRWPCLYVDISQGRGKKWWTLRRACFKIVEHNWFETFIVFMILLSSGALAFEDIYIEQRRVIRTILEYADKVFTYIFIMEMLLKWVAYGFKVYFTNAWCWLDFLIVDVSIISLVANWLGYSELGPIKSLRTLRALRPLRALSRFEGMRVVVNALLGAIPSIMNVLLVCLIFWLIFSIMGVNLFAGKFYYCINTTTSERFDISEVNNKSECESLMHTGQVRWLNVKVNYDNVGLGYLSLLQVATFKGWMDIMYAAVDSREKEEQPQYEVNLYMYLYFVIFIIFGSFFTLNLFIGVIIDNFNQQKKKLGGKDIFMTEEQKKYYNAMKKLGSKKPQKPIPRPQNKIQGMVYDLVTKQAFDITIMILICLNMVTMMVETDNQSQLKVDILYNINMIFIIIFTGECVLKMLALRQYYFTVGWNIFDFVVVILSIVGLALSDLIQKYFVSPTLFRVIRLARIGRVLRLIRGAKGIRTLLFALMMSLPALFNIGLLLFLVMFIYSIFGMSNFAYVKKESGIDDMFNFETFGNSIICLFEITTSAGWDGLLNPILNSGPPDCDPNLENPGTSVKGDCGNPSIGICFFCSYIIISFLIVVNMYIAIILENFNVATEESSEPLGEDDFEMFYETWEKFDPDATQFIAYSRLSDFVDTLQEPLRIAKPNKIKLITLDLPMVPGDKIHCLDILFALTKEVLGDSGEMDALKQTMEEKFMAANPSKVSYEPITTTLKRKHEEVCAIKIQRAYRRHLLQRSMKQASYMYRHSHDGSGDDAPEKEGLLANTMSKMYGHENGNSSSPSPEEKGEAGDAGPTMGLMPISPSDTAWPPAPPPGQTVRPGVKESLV
human NaV1.7, sequence (Q15858 whole entry): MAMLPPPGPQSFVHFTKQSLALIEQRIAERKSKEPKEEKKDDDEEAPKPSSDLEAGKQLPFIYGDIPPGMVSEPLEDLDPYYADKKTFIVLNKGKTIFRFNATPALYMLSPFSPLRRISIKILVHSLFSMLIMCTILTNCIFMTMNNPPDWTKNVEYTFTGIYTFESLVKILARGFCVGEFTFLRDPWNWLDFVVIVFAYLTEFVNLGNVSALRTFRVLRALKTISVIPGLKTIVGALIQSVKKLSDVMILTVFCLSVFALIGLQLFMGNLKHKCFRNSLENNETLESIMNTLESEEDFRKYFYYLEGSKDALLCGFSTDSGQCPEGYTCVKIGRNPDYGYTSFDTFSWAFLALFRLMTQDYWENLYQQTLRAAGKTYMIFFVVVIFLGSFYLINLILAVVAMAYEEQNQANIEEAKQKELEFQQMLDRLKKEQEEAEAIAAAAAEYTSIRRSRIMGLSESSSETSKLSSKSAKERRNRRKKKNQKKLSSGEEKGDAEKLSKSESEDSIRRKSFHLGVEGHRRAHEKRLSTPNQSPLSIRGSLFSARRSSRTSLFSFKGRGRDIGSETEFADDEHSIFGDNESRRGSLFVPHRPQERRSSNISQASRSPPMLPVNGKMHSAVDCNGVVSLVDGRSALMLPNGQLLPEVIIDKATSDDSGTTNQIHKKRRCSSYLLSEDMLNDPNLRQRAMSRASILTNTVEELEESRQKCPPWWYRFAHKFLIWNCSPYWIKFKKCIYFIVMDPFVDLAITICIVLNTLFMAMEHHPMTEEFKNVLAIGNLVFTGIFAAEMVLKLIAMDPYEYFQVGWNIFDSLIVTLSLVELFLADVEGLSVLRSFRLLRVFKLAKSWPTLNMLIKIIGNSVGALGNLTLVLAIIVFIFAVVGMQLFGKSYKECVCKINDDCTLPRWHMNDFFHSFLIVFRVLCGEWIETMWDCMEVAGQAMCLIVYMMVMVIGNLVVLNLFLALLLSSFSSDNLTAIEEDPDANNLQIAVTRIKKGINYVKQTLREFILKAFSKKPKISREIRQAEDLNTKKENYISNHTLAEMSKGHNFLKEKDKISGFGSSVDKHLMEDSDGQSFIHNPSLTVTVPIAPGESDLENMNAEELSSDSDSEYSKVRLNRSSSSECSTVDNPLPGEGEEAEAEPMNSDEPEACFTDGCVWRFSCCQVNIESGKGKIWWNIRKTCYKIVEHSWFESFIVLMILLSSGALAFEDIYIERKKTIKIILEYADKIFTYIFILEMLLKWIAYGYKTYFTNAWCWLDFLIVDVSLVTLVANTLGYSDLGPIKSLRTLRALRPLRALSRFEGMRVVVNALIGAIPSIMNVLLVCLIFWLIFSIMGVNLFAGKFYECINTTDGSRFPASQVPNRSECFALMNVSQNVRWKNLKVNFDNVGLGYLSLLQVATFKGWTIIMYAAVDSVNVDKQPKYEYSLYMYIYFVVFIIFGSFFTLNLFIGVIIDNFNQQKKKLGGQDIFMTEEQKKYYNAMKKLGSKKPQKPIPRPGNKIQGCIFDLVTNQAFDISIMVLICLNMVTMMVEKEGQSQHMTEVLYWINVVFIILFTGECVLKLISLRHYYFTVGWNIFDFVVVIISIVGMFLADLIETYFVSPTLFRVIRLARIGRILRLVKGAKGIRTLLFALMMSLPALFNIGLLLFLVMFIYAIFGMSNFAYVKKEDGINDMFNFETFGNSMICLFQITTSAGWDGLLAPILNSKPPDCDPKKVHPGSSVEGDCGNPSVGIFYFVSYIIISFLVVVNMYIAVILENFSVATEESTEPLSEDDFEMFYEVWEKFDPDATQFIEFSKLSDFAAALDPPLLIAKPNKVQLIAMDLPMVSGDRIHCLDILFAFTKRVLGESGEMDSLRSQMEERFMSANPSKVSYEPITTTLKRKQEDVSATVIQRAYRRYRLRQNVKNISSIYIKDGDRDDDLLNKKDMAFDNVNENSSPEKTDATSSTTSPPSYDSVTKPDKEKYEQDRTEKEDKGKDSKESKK

C#CC[C@H](N)C(=O)N[C@@H](Cc1ccc(O)cc1)C(=O)N[C@H]1CSSC[C@@H]2NC(=O)[C@@H]3CSSC[C@@H](C(=O)N[C@@H](CCCNC(=N)N)C(=O)N[C@@H](CCCCN)C(=O)N[C@H](C(=O)N[C@H](C(N)=O)[C@@H](C)CC)[C@@H](C)CC)NC(=O)[C@H](Cc4c[nH]c5ccccc45)NC(=O)[C@H](CC(C)C)NC(=O)[C@H](CCCCN)NC(=O)[C@H](CSSC[C@H](NC(=O)[C@H]([C@@H](C)O)NC(=O)[C@H](Cc4c[nH]c5ccccc45)NC(=O)[C@H](CCCC)NC(=O)[C@H](Cc4c[nH]c5ccccc45)NC(=O)[C@H](CCCCN)NC(=O)[C@H](CCC(N)=O)NC1=O)C(=O)N[C@@H](CC(=O)O)C(=O)N[C@@H](CO)C(=O)N[C@@H](CCCCN)C(=O)N[C@@H](CCCNC(=N)N)C(=O)N[C@@H](C)C(=O)N3)NC(=O)[C@H](CCCNC(=N)N)NC(=O)[C@H](CC(C)C)NC(=O)CNC(=O)[C@H](CCC(=O)O)NC2=O [Peptide 3, Pra-[Nle6]JzTx-V(1–29)]
IC50 [1]: 1.2 nM
IC50 [2]: 1090 nM
selectivity for NaV1.7 over NaV1.4 ([3]; PX platform IC50 ratio): 5 fold
IC50 ([3]; PX platform, at least ten cells, two to three data points per concentration): 6.2 nM
